Experimental data taken from PMC5469758, “Identification of an in vivo orally active dual-binding protein-protein interaction inhibitor targeting TNFα through combined in silico/in vitro/in vivo screening” (Scientific Reports, 2017).
Read-outs that look alike come from different tables or passages of the source.

Legend:
TNFα [1] = target: T1, TNFα (Homo sapiens, UniProt P01375); assay: Surface Acoustic Wave (SAW) biosensor gravimetric measurement of dissociation constants; format: binding; details: for Kd: two-site binding model, room temperature
T1 construct: purchased R&D Systems
Protocol: Gravimetric measurements were performed using surface acoustic wave (SAW) sensors. TNFα solutions were prepared by diluting 10 µg of lyophilized TNFα in 1 ml of PBS. They were kept in the freezer (at −18 °C) and put at room temperature just before their further grafting onto the gold surface area of the SAW sensor.
Phase shift variations (ΔΦ) versus compound concentration (C) were fitted using equation 1 ΔΦ=Φsat×C/Kd+C where Φsat represents the maximum sensor’s response to the compound binding and Kd represents the equilibrium dissociation constant.
In the case of a two-site binding, equation 2 was used for fitting:2 ΔΦ=Φsat,1×C/Kd1+C+Φsat,2×C/Kd2+C
where Φsat1 and Φsat2 are related to the maximum sensor’s response for each binding site and Kd1 and Kd2 are their respective dissociation constants.

TNFα [2] = target: T1, TNFα; assay: Intrinsic tryptophan fluorescence of TNFα; format: binding; details: 0.5 μM TNFα; 20–100 µM range
Protocol: All samples were brought to 10 mM phosphate buffer, 0.05% Tween20, 1% DMSO. Fluorescence readings were made with a Quantamaster QM4CW spectrofluorimeter (Photon Technology International), by exciting TNFα at 290 nm and measuring the emission peaks at 322 nm. Compound 1 inner filter effects were corrected using absorbance measurements of compound alone solutions at 290 nm and 322 nm.

TNFα/TNFRI = target: T2, TNFα/TNFRI (Homo sapiens, UniProt P01375); assay: TNFα-TNFRI binding ELISA; format: biochemical
T2 construct: purchased R&D Systems
Protocol: (§1) Microtiter plates were coated with 12.5 ng of TNFRI or TNFRII in 125 μl of PBS per well at 37 °C. The wells were washed, blocked with PBS/BSA 2% for three hours and washed as before. Serial dilutions of compounds were mixed with a fixed quantity of TNFα in PBS/BSA 1% and incubated two hours at 37 °C. 125 μl of the mix were added to the wells and plates were incubated overnight at 4 °C. Wells were washed incubated with 37.5 ng of TNFα biotinylated antibody in 125 μl of PBS/BSA 1% for two hours at 37 °C. Wells were washed and incubated with avidin-HRP (1:500) in 125 μl of PBS/BSA 1% for 30 minutes at 37 °C, 5% CO2. After washing, TMB solution was added to wells, quenched with 63 μl of 1 M H2SO4 solution. Absorbance was measured at 450 nm.

TNFα/TNFRII = target: T3, TNFα/TNFRII (Homo sapiens, UniProt P01375); assay: TNFα-TNFRII binding ELISA; format: biochemical
T3 construct: purchased R&D Systems
Protocol: as §1

[3] = system: human TNFα induced apoptosis on the L929 cell line; assay: Neutralization of human TNFα induced apoptosis in L929 cells (MTT); format: cell-based; details: human TNFα, read-out: IC50, inhibition of TNFα induced apoptosis
Protocol: (§2) 80% confluent L929 cells were plated in flat bottom plates at 4 × 10^5 cells per well in 100 μl of DMEM medium containing 10% FBS, 2 mM L-Glutamine, 100 U/ml Penicillin − 100 μg/ml Streptomycin and incubated for one night at 37 °C, 5% CO2. TNFα or TNFβ (150 pg/ml), Actinomycin D (4 μg/ml) and the compounds at different concentrations (ranging from 100 μM to 0.8 μM) were mixed in 150 μl DMEM medium 1% FBS, 2 mM L-Glutamine, 100 U/ml Penicillin−100 μg/ml Streptomycin in U-bottom plates. After two hours incubation at 37 °C, 5% CO2, 100 μl of the mix was added to the plated cells and incubated at 37 °C, 5% CO2 for 24 hours. Supernatants were discarded and 100 μl of MTT at 0.5 mg/ml were added to wells. After two hours, supernatants were discarded and 200 μl of DMSO were then added. Plates were read at 570 nm with a spectrophotometer providing the optical density (OD) of each well. The percentage of neutralization of TNFα by a compound was calculated using equation 3:3 %Neutra=ODcompound−ODTNFα/ODcells−ODTNFα×100
(§3) An IC50 could be computed from the percentage of neutralization for each compound.

[4] = system: TNFα induced NF-κB activation in HEK cells; assay: HEK-Blue TNFα NF-κB secreted embryonic alkaline phosphatase reporter assay; format: cell-based, human; details: Homo sapiens, HEK293; HEK cell line expressing TNFRI; read-out: IC50, TNFα signaling NF-κB reporter
Protocol: 80% confluent HEK-Blue™ TNFα were plated in flat bottom plates at 5 × 10^4 per well in 100 μl of DMEM containing 2 mM L-Glutamine, 100 U/ml Penicillin − 100 μg/ml Streptomycin and incubated at 37 °C, 5% CO2. Serial dilutions of compounds (ranging from 100 μM to 0.8 μM) were mixed with 400 pg/ml of human TNFα in DMEM containing 2% of FBS, 2 mM L-Glutamine, 100 U/ml Penicillin−100 μg/ml Streptomycin in U-bottom plates. After two hours of incubation at 37 °C, 5% CO2, 100 μl of the mix was added to the plated cells and incubated 24 hours at 37 °C, 5% CO2. 20 μl of supernatants were incubated for 3 hours with 180 μl of QUANTI-Blue™ to reveal secretion of phosphatase alcaline and plates were read at 620 nm with a spectrophotometer providing the optical density (OD).

[5] = system: TNFβ induced apoptosis in L929 cell line; assay: Neutralization of TNFβ induced apoptosis in L929 cells (MTT); format: cell-based
Protocol: as §2, §3

[6] = system: murine TNFα-induced apoptosis on L929 cells; assay: Neutralization of murine TNFα induced apoptosis in L929 cells; format: cell-based; details: Mus musculus
Protocol: as §2, §3

[7] = system: CXCL1 secretion by L929 cells; assay: CXCL1 secretion in L929 supernatants after TNFα stimulation (ELISA); format: cell-based, murine; details: TNFα (5 ng/ml)
Protocol: Cells were plated at 2.5 × 10^5 cells/well in 24-well plates and treated as indicated. Eight hours later, supernatants were recovered and kept at −20 °C for later use. The concentration of murine CXCL1 was measured in supernatants with a dosage ELISA kit obtained from R&D Systems (Lille, France) according to the manufacter’s procedures.

caspase 3 activation = assay: Caspase-Glo 3 activation assay; format: cell-based; details: dose dependent
Protocol: (§4) Caspases 3 and 8 activation was determined using Caspase-Glo® 3 and Caspase-Glo-8® assays kits (Promega) according to the manufacter’s procedures. After 8 hours of treatment, plates were equilibrated at room temperature. 100 μl Caspase-Glo 3® and Caspase-Glo 8® reagent were added to each well. Luminescence was read on a FLUOstar OPTIMA reader.

caspase 8 activation = assay: Caspase-Glo 8 activation assay; format: cell-based; details: dose dependent
Protocol: as §4

[8] = system: IκB kinases (IKK), JNK1, p38 and Syk, caspase 3, caspase 8; assay: Direct inhibition of kinases and caspases related to the TNFα pathway (CEREP/Eurofins panel); format: biochemical; details: at 1 µM
Protocol: (§5) Kinases and caspases activities in presence of 1 µM of compound 1 were carried out by CEREP/Eurofins (Celle-Lévescault). The activity of compound 1 on the different kinases and caspases was compared to control values. Data are expressed as percentages of inhibition of control values.

IKKα = target: T4, IKKα (Homo sapiens, UniProt O15111); assay: CEREP/Eurofins kinase inhibition, IKKα; format: biochemical; details: read-out: % Inhibition of Control Values
T4 construct: purchased CEREP/Eurofins
Protocol: as §5

IKKβ = target: T5, IKKβ (Homo sapiens, UniProt O14920); assay: CEREP/Eurofins kinase inhibition, IKKβ; format: biochemical; details: read-out: % Inhibition of Control Values
T5 construct: purchased CEREP/Eurofins
Protocol: as §5

IKKε = target: T6, IKKε (Homo sapiens, UniProt Q14164); assay: CEREP/Eurofins kinase inhibition, IKKε; format: biochemical; details: read-out: % Inhibition of Control Values
T6 construct: purchased CEREP/Eurofins
Protocol: as §5

JNK1 = target: T7, JNK1 (Homo sapiens, UniProt P45983); assay: CEREP/Eurofins kinase inhibition, JNK1; format: biochemical; details: JNK1, 1 μM; read-out: % Inhibition of Control Values
T7 construct: purchased CEREP/Eurofins
Protocol: as §5

p38α kinase = target: T8, p38α kinase (Homo sapiens, UniProt Q16539); assay: CEREP/Eurofins kinase inhibition, p38α; format: biochemical; details: read-out: % Inhibition of Control Values
T8 construct: purchased CEREP/Eurofins
Protocol: as §5

p38γ kinase = target: T9, p38γ kinase (Homo sapiens, UniProt P53778); assay: CEREP/Eurofins kinase inhibition, p38γ; format: biochemical; details: read-out: % Inhibition of Control Values
T9 construct: purchased CEREP/Eurofins
Protocol: as §5

p38δ kinase = target: T10, p38δ kinase (Homo sapiens, UniProt O15264); assay: CEREP/Eurofins kinase inhibition, p38δ; format: biochemical; details: read-out: % Inhibition of Control Values
T10 construct: purchased CEREP/Eurofins
Protocol: as §5

Syk = target: T11, Syk (Homo sapiens, UniProt P43405); assay: CEREP/Eurofins kinase inhibition, Syk; format: biochemical; details: read-out: % Inhibition of Control Values
T11 construct: purchased CEREP/Eurofins
Protocol: as §5

Caspase 3 = target: T12, Caspase 3 (Homo sapiens, UniProt P42574); assay: CEREP/Eurofins caspase inhibition, Caspase 3; format: biochemical; details: Caspase 3, 1 μM; read-out: % Inhibition of Control Values
T12 construct: purchased CEREP/Eurofins
Protocol: as §5

Caspase 8 = target: T13, Caspase 8 (Homo sapiens, UniProt Q14790); assay: CEREP/Eurofins caspase inhibition, Caspase 8; format: biochemical; details: Caspase 8, 1 μM; read-out: % Inhibition of Control Values
T13 construct: purchased CEREP/Eurofins
Protocol: as §5

Balb/C mice = assay: LPS/D-Galactosamine induced lethal shock (TNFα-dependent hepatic shock model); format: in vivo
Protocol: 7 weeks-old Balb/C mice were force-fed with 100 μl of a solution of DMSO containing various doses of compound 1 (5 mg down to 0.5 mg) eight hours before receiving an intraperitoneal injection of 200 μl of PBS containing 0.1 μg of LPS and 20 mg of D-Galactosamine. A control group (DMSO) was force-fed with 100 μl of a solution of DMSO alone eight hours before to be injected with 200 μl of LPS/D-Galactosamine solution. Mice survival was monitored for 48 hours after the injection of LPS/D-Galactosamine.
7 weeks-old Balb/C mice were forced-fed with a solution of DMSO containing 5 mg of compound 1 eight hours before receiving an intraperitoneal injection of 200 μl of PBS containing 0.1 μg of LPS and 20 mg of D-Galactosamine. Eight hours after LPS/D-Galactosamine injection, mice were sacrificed by cervical dislocation and livers were harvested, fixed in 4% formalin and embedded in paraffin. […] Slides were scanned with a slide scanner (Perkin Elmer) and analyzed with Pannoramic viewer (3D HISTECH).
7 weeks-old Balb/C mice were forced-fed with a solution of DMSO containing 5 mg of compound 1 eight hours before receiving an intraperitoneal injection of 200 μl of PBS containing 0.1 μg of LPS and 20 mg of D-Galactosamine. Three hours after LPS/D-Galactosamine injection, mice were anesthetized with ketamine/xylazine to recover blood by cardiac puncture. Sera were kept at −80 °C until assay.
TNFα in serum was quantified using U-CyTech biosciences kits (Utrecht, The Netherlands) according to manufacturer’s procedures.
7 weeks-old Balb/C mice were forced-fed with a solution of DMSO containing 5 mg of compound 1 eight hours before receiving an intraperitoneal injection of 200 μl of PBS containing 0.1 μg of LPS and 20 mg of D-Galactosamine. Eight hours after, mice were anesthetized by an injection of ketamine/xylazine to recover blood by cardiac puncture. Sera were kept at −80 °C until assay. Quantification of AST/ALT was performed using Architec ci 8200 analyser (Abbott) with reagent kits from Abbott.

[9] = Solubility in aqueous solvents; format: physicochemical
Bioavailability = format: in vivo; details: mouse, oral
[10] = livers eight hours after LPS/D-Galactosamine

T1 sequence (P01375 77-233 limits assumed): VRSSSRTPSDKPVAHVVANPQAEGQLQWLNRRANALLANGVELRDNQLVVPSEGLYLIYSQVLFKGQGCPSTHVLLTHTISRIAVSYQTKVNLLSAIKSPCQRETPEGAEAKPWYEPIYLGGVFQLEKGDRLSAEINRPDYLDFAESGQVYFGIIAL
T3 sequence (P01375 77-233 limits assumed): as above
T2 sequence (P01375 77-233 limits assumed): as above
T4 sequence (O15111 whole entry): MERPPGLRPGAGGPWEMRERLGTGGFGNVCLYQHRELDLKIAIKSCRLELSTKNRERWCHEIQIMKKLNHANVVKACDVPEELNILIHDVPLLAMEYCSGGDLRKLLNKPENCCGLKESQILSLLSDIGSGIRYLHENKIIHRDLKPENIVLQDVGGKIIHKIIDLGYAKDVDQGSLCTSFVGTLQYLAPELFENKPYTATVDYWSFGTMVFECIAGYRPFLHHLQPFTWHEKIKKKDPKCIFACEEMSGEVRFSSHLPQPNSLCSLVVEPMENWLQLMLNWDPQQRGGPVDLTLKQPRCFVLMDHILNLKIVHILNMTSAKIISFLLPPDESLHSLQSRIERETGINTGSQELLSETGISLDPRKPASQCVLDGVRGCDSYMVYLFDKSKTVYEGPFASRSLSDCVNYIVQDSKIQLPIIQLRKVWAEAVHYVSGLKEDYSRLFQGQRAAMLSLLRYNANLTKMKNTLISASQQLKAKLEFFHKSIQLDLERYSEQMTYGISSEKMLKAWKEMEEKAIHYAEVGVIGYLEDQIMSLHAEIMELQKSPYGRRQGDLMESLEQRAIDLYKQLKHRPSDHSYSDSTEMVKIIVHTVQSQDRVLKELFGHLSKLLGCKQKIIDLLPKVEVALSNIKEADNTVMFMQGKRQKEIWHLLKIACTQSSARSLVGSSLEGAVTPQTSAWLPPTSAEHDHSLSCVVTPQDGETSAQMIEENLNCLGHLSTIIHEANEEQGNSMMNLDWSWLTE
T6 sequence (Q14164 whole entry): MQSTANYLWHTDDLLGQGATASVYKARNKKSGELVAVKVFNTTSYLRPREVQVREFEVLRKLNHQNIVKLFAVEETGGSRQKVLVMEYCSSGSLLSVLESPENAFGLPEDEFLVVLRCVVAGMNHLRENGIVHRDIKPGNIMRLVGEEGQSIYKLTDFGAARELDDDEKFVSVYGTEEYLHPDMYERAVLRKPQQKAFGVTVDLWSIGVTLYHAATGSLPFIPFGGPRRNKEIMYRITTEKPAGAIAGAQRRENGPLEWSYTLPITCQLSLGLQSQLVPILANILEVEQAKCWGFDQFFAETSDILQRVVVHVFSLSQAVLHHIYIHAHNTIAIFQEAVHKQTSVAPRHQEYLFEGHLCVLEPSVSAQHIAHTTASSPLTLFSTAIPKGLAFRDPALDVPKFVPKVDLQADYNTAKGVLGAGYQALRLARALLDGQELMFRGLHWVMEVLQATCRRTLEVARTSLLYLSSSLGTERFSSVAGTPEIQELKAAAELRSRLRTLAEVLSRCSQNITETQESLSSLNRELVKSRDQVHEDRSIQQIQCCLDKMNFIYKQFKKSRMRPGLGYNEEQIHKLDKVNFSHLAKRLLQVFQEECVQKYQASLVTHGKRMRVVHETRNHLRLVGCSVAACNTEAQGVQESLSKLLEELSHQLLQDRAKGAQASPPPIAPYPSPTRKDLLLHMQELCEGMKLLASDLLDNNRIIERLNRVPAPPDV
T5 sequence (O14920 whole entry): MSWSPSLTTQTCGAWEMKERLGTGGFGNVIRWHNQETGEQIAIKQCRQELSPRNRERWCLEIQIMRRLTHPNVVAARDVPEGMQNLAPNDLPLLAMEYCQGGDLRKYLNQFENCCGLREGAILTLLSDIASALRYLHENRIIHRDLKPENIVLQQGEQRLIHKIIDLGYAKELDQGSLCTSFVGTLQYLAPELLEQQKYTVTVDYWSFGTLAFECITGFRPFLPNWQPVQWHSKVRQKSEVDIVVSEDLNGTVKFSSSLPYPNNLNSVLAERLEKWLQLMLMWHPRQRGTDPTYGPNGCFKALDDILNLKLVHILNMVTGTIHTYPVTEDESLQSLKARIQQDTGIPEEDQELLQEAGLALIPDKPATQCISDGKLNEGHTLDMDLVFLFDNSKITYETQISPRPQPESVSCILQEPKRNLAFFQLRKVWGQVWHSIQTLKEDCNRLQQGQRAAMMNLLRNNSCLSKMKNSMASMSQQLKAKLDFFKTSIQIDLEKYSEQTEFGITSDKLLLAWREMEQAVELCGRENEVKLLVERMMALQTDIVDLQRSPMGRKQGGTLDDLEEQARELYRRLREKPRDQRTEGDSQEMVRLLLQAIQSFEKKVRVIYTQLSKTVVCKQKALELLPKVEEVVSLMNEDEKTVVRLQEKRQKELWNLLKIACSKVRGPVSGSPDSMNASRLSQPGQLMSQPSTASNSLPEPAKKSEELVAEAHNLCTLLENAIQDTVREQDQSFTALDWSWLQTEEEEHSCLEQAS
T10 sequence (O15264 whole entry): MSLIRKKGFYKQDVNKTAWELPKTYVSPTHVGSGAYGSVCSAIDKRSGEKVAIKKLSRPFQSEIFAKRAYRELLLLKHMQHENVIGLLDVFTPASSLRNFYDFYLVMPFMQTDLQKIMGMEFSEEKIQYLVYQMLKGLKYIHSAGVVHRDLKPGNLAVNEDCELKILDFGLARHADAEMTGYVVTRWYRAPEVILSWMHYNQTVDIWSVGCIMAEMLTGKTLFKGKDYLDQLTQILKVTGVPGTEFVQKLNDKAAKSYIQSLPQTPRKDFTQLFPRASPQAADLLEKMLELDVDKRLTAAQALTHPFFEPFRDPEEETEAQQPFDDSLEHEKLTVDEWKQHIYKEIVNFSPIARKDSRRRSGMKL
T13 sequence (Q14790 217-374 limits assumed): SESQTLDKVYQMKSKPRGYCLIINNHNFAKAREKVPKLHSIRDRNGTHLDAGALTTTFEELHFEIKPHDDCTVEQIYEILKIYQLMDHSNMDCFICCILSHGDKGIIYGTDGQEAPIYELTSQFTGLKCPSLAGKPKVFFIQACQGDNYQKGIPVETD
T12 sequence (P42574 29-175 limits assumed): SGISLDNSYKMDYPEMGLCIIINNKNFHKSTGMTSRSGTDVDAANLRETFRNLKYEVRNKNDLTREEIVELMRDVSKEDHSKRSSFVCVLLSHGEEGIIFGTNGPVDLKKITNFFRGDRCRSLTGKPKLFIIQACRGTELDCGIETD
T8 sequence (Q16539 whole entry): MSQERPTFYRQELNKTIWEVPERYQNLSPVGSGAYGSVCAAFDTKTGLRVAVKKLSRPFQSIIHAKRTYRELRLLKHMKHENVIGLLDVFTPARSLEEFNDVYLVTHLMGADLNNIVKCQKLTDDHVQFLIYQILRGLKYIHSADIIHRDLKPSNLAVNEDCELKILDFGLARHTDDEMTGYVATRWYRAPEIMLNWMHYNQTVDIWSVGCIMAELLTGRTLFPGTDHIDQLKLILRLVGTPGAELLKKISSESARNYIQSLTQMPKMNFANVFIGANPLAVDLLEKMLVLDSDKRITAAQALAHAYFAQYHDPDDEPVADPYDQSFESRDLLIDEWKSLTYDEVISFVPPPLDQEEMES
T7 sequence (P45983 whole entry): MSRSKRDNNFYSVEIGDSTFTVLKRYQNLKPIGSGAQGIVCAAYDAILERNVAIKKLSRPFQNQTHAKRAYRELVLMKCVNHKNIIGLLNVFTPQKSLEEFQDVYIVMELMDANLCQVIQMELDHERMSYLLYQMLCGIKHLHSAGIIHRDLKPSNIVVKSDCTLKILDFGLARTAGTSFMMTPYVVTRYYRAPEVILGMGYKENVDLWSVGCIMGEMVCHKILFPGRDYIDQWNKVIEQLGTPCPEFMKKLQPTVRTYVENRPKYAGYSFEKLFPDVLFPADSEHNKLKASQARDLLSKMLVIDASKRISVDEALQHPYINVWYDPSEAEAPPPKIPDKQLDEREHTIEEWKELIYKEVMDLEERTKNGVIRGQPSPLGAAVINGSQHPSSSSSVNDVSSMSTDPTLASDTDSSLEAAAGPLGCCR
T9 sequence (P53778 whole entry): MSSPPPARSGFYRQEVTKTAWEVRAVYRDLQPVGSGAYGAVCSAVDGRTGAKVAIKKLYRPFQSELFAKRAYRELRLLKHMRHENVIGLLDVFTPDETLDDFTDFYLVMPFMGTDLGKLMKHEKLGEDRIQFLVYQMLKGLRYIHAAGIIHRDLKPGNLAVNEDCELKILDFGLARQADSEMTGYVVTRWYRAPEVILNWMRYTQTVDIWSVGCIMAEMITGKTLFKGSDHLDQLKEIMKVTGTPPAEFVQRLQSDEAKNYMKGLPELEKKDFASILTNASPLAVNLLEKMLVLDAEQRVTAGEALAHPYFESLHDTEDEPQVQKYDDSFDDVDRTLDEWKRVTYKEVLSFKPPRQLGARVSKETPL

Cc1c(Cl)cccc1N(CC(=O)N1CCN(Cc2ccccc2)CC1)S(=O)(=O)c1ccccc1 [Compound 1]
ligand efficiency LE1 (TNFα [1]; from Kd1): 0.22
ligand efficiency LE2 (TNFα [1]; from Kd2): 0.37
Kd (TNFα [1]; read-out: Kd1 of TNFα/compound 1 complex): 4.79 ± 1.12 µM
Kd (TNFα [1]; read-out: Kd2 of TNFα/compound 1 complex): 0.00231 ± 0.00103 µM
modification of intrinsic tryptophan fluorescence of TNFα (TNFα [2]): dose dependent manner
IC50 (TNFα/TNFRI): 37 µM
IC50 (TNFα/TNFRII): 31 µM
IC50 ([3]; L929, L929 cell line): 12 µM
IC50 ([3]; L929 cell line): ~10 µM
IC50 [4]: 10 µM
maximal survival ([5]; TNFβ, at 100 μM): 40%
IC50 ([5]; read-out: IC50, inhibition of TNFβ induced apoptosis): 28 µM
IC50 [6]: ~10 µM
CXCL1 in supernatants [7]: significantly less CXCL1
activation of caspase 3 (caspase 3 activation): blocked the activation
activation of caspase 8 (caspase 8 activation): blocked the activation
effect on kinases and caspases related to the TNFα pathway [8]: no significant effect
inhibition at 1 µM (IKKα): 3.2%
inhibition at 1 µM (IKKβ): 10.3%
inhibition at 1 µM (IKKε): 7.3%
inhibition at 1 µM (JNK1): -3%
inhibition at 1 µM (p38α kinase): 1.5%
inhibition at 1 µM (p38γ kinase): -11%
inhibition at 1 µM (p38δ kinase): -1.8%
inhibition at 1 µM (Syk): -6.9%
inhibition at 1 µM (Caspase 3): -1.8%
inhibition at 1 µM (Caspase 8): -7.3%
expression of cleaved caspase 3 in liver (immunohistochemistry) (Balb/C mice; [10]): reduced expression of cleaved caspase 3
liver damage and hemorrhage (H&E histopathology) (Balb/C mice; [10]): reduced liver damage and hemorrhage
mice survival / protection from shock (Balb/C mice; oral 5 mg per mouse eight hours before shock): fully protective effect
mice serum level of AST/ALT (Balb/C mice; oral 5 mg, eight hours after shock): diminished
mice serum level of TNFα (Balb/C mice; oral 5 mg, three hours after shock): did not affect
solubility in aqueous solvents [9]: moderate solubility
bioavailability (Bioavailability): low bioavailability
